The text below walks through data of US8633245B2, “PAI-1 inhibitor” (Institute of Medicinal Molecular Design, Inc., priority 2008, dated 2014).

This assay addresses T1, recombinant human PAI-1 (Homo sapiens, UniProt P05121).
T1 construct: purchased Molecular Innovations, Inc
Briefly: Test Example 1: human PAI-1 inhibitory activity (tPA fluorogenic substrate, pH 7.5 Tris buffer). In kind it is biochemical. The conditions noted are these: Tris buffer. On the procedure: 50 mM Tris, 150 mM NaCl, 10 μg/ml BSA, 0.01% Tween80 (SIGMA-ALDRICH Corporation)

A value given as a limit tells only on which side of the number the result lay.

T1 sequence (P05121 24-402): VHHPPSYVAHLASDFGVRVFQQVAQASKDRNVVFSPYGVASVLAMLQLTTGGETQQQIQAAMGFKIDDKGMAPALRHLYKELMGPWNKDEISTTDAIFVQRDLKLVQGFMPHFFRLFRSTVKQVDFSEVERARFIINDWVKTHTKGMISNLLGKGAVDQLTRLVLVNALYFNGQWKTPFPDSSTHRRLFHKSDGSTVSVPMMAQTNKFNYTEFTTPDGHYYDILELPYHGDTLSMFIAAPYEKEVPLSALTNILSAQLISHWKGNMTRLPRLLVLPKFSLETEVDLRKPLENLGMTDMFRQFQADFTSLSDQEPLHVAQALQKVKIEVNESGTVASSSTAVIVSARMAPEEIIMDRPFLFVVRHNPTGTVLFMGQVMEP

Turning to `CC(C)(C)c1ccc(COc2ccc(-c3ccc(C(C)(C)C)cc3)cc2/C=C/C(=O)O)cc1` [Compound 39], the “Inhibition Rate of PAI-1 Activity (%)” value by setting is: (Compound Concentration 5 μM) 25%; (Compound Concentration 10 μM) 56%; (Compound Concentration 25 μM) 94%.
Consider `CC(C)(C)c1ccc(COc2ccc(-c3ccc(C(C)(C)C)cc3)cc2CCC(=O)O)cc1` [Compound 40], for which the “Inhibition Rate of PAI-1 Activity (%)” value runs as follows: (Compound Concentration 5 μM) 22%; (Compound Concentration 10 μM) 66%; (Compound Concentration 25 μM) greater than 99%.
The corresponding values for `CCCCc1ccc(-c2ccc(OCc3ccc(C(C)(C)C)cc3)c(CCC(=O)O)c2)cc1` [Compound 43] are 29%, 66% and 94%.
Consider `CSc1ccc(-c2ccc(OCc3ccc(C(C)(C)C)cc3)c(/C=C/C(=O)O)c2)cc1` [Compound 44], for which the “Inhibition Rate of PAI-1 Activity (%)” value is 16% (Compound Concentration 5 μM), 25% (Compound Concentration 10 μM) and 21% (Compound Concentration 25 μM).
The corresponding values for `CC(C)(C)c1ccc(-c2ccc(OCc3ccccc3)c(/C=C/C(=O)O)c2)cc1` [Compound 47] are 22%, 47% and 91%.
On the same counts, the results for `CC(C)(C)c1ccc(-c2ccc(OCc3ccccc3)c(CCC(=O)O)c2)cc1` [Compound 48] are 20%, 50% and 93%.
With `CC(C)(C)c1ccc(-c2ccc(OCc3ccc(OC(F)(F)F)cc3)c(/C=C/C(=O)O)c2)cc1` [Compound 51], the “Inhibition Rate of PAI-1 Activity (%)” value (Compound Concentration 5 μM) is listed as 32%, the “Inhibition Rate of PAI-1 Activity (%)” value (Compound Concentration 10 μM) amounted to 69% and the “Inhibition Rate of PAI-1 Activity (%)” value (Compound Concentration 25 μM) is listed as 94%.
On the same counts, the results for `CC(C)(C)c1ccc(-c2ccc(OCc3ccc(OC(F)(F)F)cc3)c(CCC(=O)O)c2)cc1` [Compound 52] are 28%, 64% and 94%.
On the same counts, the results for `O=C(O)CCc1cc(-c2ccccc2)ccc1OCc1ccc(OC(F)(F)F)cc1` [Compound 53] are 19%, 32% and 74%.
On the same counts, the results for `COc1ccccc1-c1ccc(OCc2ccc(C(C)(C)C)cc2)c(/C=C/C(=O)O)c1` [Compound 55] are 21%, 46% and 95%.
With `COc1ccccc1-c1ccc(OCc2ccc(C(C)(C)C)cc2)c(CCC(=O)O)c1` [Compound 56], the “Inhibition Rate of PAI-1 Activity (%)” value reads like this: (Compound Concentration 5 μM) 22%; (Compound Concentration 10 μM) 47%; (Compound Concentration 25 μM) 91%.
On the same counts, the results for `O=C(O)/C=C/c1cc(-c2ccc(OC(F)(F)F)cc2)ccc1OCc1cccc(C(F)(F)F)c1` [Compound 57] are 24%, 53% and 82%.
On the same counts, the results for `O=C(O)CCc1cc(-c2ccc(OC(F)(F)F)cc2)ccc1OCc1cccc(C(F)(F)F)c1` [Compound 58] are 22%, 53% and 97%.
The corresponding values for `Cc1cc(C)cc(COc2ccc(-c3ccc(OC(F)(F)F)cc3)cc2CCC(=O)O)c1` [Compound 59] are 25%, 53% and 77%.
For `COc1ccc(COc2ccc(-c3ccc(OC(F)(F)F)cc3)cc2CCC(=O)O)cc1` [Compound 60], the “Inhibition Rate of PAI-1 Activity (%)” value runs as follows: (Compound Concentration 5 μM) 15%; (Compound Concentration 10 μM) 35%; (Compound Concentration 25 μM) 25%.
On the same counts, the results for `Cc1ccc(COc2ccc(-c3ccc(OC(F)(F)F)cc3)cc2CCC(=O)O)cc1` [Compound 61] are 21%, 48% and 97%.
The corresponding values for `O=C(O)CCc1cc(-c2ccc(OC(F)(F)F)cc2)ccc1OCc1ccc(OC(F)(F)F)cc1` [Compound 62] are 29%, 62% and 99%.
For `CC(C)(C)c1ccc(COc2ccc(-c3cccc(OC(F)(F)F)c3)cc2/C=C/C(=O)O)cc1` [Compound 63], the “Inhibition Rate of PAI-1 Activity (%)” value is recorded as 38% (Compound Concentration 5 μM), 72% (Compound Concentration 10 μM) and 93% (Compound Concentration 25 μM).
Take `CC(C)(C)c1ccc(COc2ccc(-c3cccc(OC(F)(F)F)c3)cc2CCC(=O)O)cc1` [Compound 64]: the “Inhibition Rate of PAI-1 Activity (%)” value runs as follows: (Compound Concentration 5 μM) 49%; (Compound Concentration 10 μM) 74%; (Compound Concentration 25 μM) 95%.
On the same counts, the results for `CC(C)(C)c1ccc(COc2ccc(-c3ccccc3OC(F)(F)F)cc2/C=C/C(=O)O)cc1` [Compound 65] are 42%, 72% and 93%.
On the same counts, the results for `CC(C)(C)c1ccc(COc2ccc(-c3ccccc3OC(F)(F)F)cc2CCC(=O)O)cc1` [Compound 66] are 52%, 80% and greater than 99%.
As for `CC(C)(C)c1ccc(-c2ccc(OCc3ccccc3OC(F)(F)F)c(CCC(=O)O)c2)cc1` [Compound 67], the “Inhibition Rate of PAI-1 Activity (%)” value is on record as 37% (Compound Concentration 5 μM), 70% (Compound Concentration 10 μM) and 94% (Compound Concentration 25 μM).
As to `CC(C)(C)c1ccc(-c2ccc(OCc3cccc(OC(F)(F)F)c3)c(CCC(=O)O)c2)cc1` [Compound 68], the “Inhibition Rate of PAI-1 Activity (%)” value (Compound Concentration 5 μM) is recorded as 40%, the “Inhibition Rate of PAI-1 Activity (%)” value (Compound Concentration 10 μM) turned out to be 74% and the “Inhibition Rate of PAI-1 Activity (%)” value (Compound Concentration 25 μM) is 95%.
On the same counts, the results for `CC(C)(C)c1ccc(-c2ccc(OCc3ccc(C(F)(F)F)cc3)c(CCC(=O)O)c2)cc1` [Compound 70] are 47%, 71% and 95%.
The corresponding values for `CCCCc1ccc(COc2ccc(-c3ccc(C(C)(C)C)cc3)cc2CCC(=O)O)cc1` [Compound 71] are 51%, 80% and 93%.
On the same counts, the results for `CC(C)c1ccc(Oc2ccc(/C=C/C(=O)O)c(Oc3ccc(C(C)C)cc3)c2)cc1` [Compound 72] are 32%, 72% and 98%.
Regarding `CC(C)c1ccc(Oc2ccc(/C=C\C(=O)O)c(Oc3ccc(C(C)C)cc3)c2)cc1` [Compound 74], the “Inhibition Rate of PAI-1 Activity (%)” value reads like this: (Compound Concentration 5 μM) 13%; (Compound Concentration 10 μM) 53%; (Compound Concentration 25 μM) 96%.
The corresponding values for `CC(C)(C)c1ccc(COc2cc(-c3ccc(OC(F)(F)F)cc3)ccc2/C=C/C(=O)O)cc1` [Compound 75] are 25%, 53% and 91%.
On the same counts, the results for `CC(C)(C)c1ccc(COc2cc(Oc3ccc(OC(F)(F)F)cc3)ccc2/C=C/C(=O)O)cc1` [Compound 77] are 27%, 51% and 73%.
The corresponding values for `CC(C)(C)c1ccc(Oc2cc(-c3ccc(OC(F)(F)F)cc3)ccc2/C=C/C(=O)O)cc1` [Compound 79] are 39%, 84% and 90%.
As for `COc1cc(-c2ccc(OC(F)(F)F)cc2)cc(/C=C/C(=O)O)c1OCc1ccc(C(C)(C)C)cc1` [Compound 81], the “Inhibition Rate of PAI-1 Activity (%)” value (Compound Concentration 5 μM) is on record as 28%, the “Inhibition Rate of PAI-1 Activity (%)” value (Compound Concentration 10 μM) is 63% and the “Inhibition Rate of PAI-1 Activity (%)” value (Compound Concentration 25 μM) was found to be 70%.
The corresponding values for `COc1cc(-c2ccc(OC(F)(F)F)cc2)cc(CCC(=O)O)c1OCc1ccc(C(C)(C)C)cc1` [Compound 82] are 26%, 59% and 98%.
As for `Cc1cc(-c2ccc(OC(F)(F)F)cc2)cc(/C=C/C(=O)O)c1OCc1ccc(C(C)(C)C)cc1` [Compound 83], the “Inhibition Rate of PAI-1 Activity (%)” value is, setting by setting: (Compound Concentration 5 μM) 27%; (Compound Concentration 10 μM) 46%; (Compound Concentration 25 μM) 56%.
The corresponding values for `Cc1cc(-c2ccc(OC(F)(F)F)cc2)cc(CCC(=O)O)c1OCc1ccc(C(C)(C)C)cc1` [Compound 84] are 28%, 62% and 95%.
In the case of `CC(C)(C)c1ccc(COc2cccc(Oc3ccc(OC(F)(F)F)cc3)c2/C=C/C(=O)O)cc1` [Compound 85], the “Inhibition Rate of PAI-1 Activity (%)” value reads like this: (Compound Concentration 5 μM) 40%; (Compound Concentration 10 μM) 61%; (Compound Concentration 25 μM) 85%.
On the same counts, the results for `CC(C)(C)c1ccc(COc2c(/C=C/C(=O)O)cccc2-c2ccc(OC(F)(F)F)cc2)cc1` [Compound 87] are 44%, 81% and 96%.
On to `CC(C)(C)c1ccc(Oc2cc(Oc3ccc(OC(F)(F)F)cc3)ccc2/C=C/C(=O)O)cc1` [Compound 89], for which the “Inhibition Rate of PAI-1 Activity (%)” value (Compound Concentration 5 μM) was 46%, the “Inhibition Rate of PAI-1 Activity (%)” value (Compound Concentration 10 μM) was 87% and the “Inhibition Rate of PAI-1 Activity (%)” value (Compound Concentration 25 μM) amounted to 95%.
